In patent US9101565B2, “Dissolution stability of calcium carbonate tablets” (TAKEDA NYCOMED AS, priority 2008, dated 2015):

Assay: Test of compactability of different sugar alcohols (crushing strength vs compression force)
Type: physicochemical
Settings: pure sugar alcohol compacts, single punch press, punch and die lubricated with magnesium stearate; FIG. 1
Method: Tablets comprising either Neosorb P100T, Sorbidex P1666BO, Isomalt ST-PF, Maltisorb P90, Mannitol 60 or Xylitol CM50 were compressed on an instrumented Fette Exacta 1/F single punch tablet press, only maximum compression force on the upper punch was recorded.
Before the compression of each tablet the punch tips and the die bore were lubricated with a 5% suspension of magnesium stearate in acetone. The acetone was allowed to evaporate before compression of the tablet.
The sugar alcohol was weighed, transferred to the die bore and then compressed, see table 1. Immediately after ejection the tablet was tested for crushing strength.
From FIG. 1 (each point is the average of three measurements) it is seen that the assumption was correct. Therefore, test of particle size was not repeated for the other sugar alcohols.
The tabletting machine used is equipped with data acquisition that as a minimum measure the compaction force applied. However, any tabletting machine may be used provided the compaction force applied can be measured.
The crushing strength has been measured by use of a Schleuniger-2E from the company Dr. Schleuniger and determined as the mean of measuring the crushing strength for 10 individual tablets.

| Compound | compactability (slope of the correlation between compression force and crushing strength) |
| --- | --- |
| OC[C@@H](O)[C@@H](O[C@H]1O[C@H](CO)[C@@H](O)[C@H](O)[C@H]1O)[C@H](O)[C@@H](O)CO [Maltitol] | very poor compactability |
| OC[C@@H](O)[C@H](O)[C@@H](O)CO [xylitol, Xylitol] | very poor compactability |
| OC[C@@H](O)[C@@H](O)[C@H](O)[C@@H](O)CO [sorbitol, Sorbitol] | best compactability |

Next, values leading:

| compactability (slope of the correlation between compression force and crushing strength) | Compound |
| --- | --- |
| very poor compactability | OC[C@@H](O)[C@@H](O)[C@H](O)[C@H](O)CO [mannitol, Mannitol] |
| Sorbitol is followed by isomalt | Isomalt |

Same assay, conditions: two mean particle sizes, 38 μm and 110 μm; FIG. 1

| tablet crushing strength, dependence on particle size | Compound |
| --- | --- |
| independent of particle size | OC[C@@H](O)[C@@H](O)[C@H](O)[C@@H](O)CO [sorbitol, Sorbitol] |
